In US20250346885A1, “SYSTEMS AND METHODS FOR TARGETED CONTINUOUS GENOME MUTAGENESIS” (The Broad Institute, Inc., priority 2023, published 2025):

How the values were obtained:
HEK3, TNF, and IL6 loci = test: HACE editing rate and range with helicase and nickase variants (1000 bp window, local rate in 100 bp bins); format: cell-based, human; details: nCas9 D10A versus nCas9 H840A
Description: In one embodiment, HACE constructs were tested with different helicase enzymes.
The editing range of different HE constructs was then characterized. For each helicase, nickase, and loci combination, the respective HE, nCas9, and sgRNA combination was transfected into HEK293FT cells, genomic DNA was harvested after three days, and then a 1000 bp window was amplified by PCR for sequencing. The target-strand and non-target strand nickase had similar long range editing performance (FIG. 5C-D, FIG. 10B-C). […] Thus, the nCas9 binding and DNA-sgRNA duplex might obstruct the helicase loading on the non-nicked single-stranded DNA.
In another embodiment, the local average mutation rate was calculated in 100 bp bins for each genomic loci (FIG. 10D). […]
For long amplicon (˜2000 bp) sequencing, the targeted region was amplified using Phusion U Hot Start PCR master mix in a 20 μL reaction. […] The concentration of each sample was measured by Qubit (Thermo Fisher Scientific). […] Sequencing was performed on a NextSeq (Illumina) with paired-end reads (read1,100 bp; index1, 8 bp; index2, 8 bp; read2, 100 bp).
To calculate the mutation rate, it was filtered for base positions with a sequencing coverage of at least 10,000. […] The average G>A editing rate was calculated by extracting all positions where “G” was the reference base, then taking the average of the per base G>A editing rate. […]

HEK293FT cells = test: CellTiter-Glo cell viability after transfection of HACE constructs; format: cell-based, human
Description: The effects of different HACE constructs on cell viability were then quantified. To do so, the cell viability was quantified using a luciferase-based ATP-assay (CellTiter-Glo) across various helicase constructs both with and without deaminase along with a loci-targeting sgRNA and nCas9 (FIG. 11A).
Cell viability was measured using the CellTiter-Glo Luminescent Cell Viability Assay (Promega) following the manufacturer's protocols. Briefly, HEK293FT cells were seeded at a density of 10,000 cells per 100 μL per well in a 96-well plate in biological triplicates. The following day, cells were transfected with respective HACE plasmids according to the above protocol. Cell viability was measured 72 h after transfection. Luminescence readings were performed using a SpectraMax M5 (Molecular Devices) plate reader.

double-stranded DNA = details: average base pairs unwound in a single binding event; cited from earlier work

preference of target and non-target strand nickase (HEK3, TNF, and IL6 loci): prefer both nickase variants equally
Substance: BLM: human helicase; in b329, b331 and b335 the HE constructed with it
cell viability (CellTiter-Glo) (HEK293FT cells): did not result in a significant decrease in cell viability
processivity range (double-stranded DNA): over 200 base pairs
